Consider twelve molecules from article PMC6027465, “Benzamide-4-Sulfonamides Are Effective Human Carbonic Anhydrase I, II, VII, and IX Inhibitors” (Metabolites, 2018).

The target of one assay is T1, hCA II (Homo sapiens, UniProt P00918).
T1 construct: gene CA2; recombinant
It is filed as biochemical.

The target in another assay is T2, hCA I (Homo sapiens, UniProt P00915).
T2 construct: gene CA1; recombinant
It is filed as biochemical.

Another assay deals with T3, VchCAβ (Vibrio cholerae, UniProt A0A086SLX8).
T3 construct: gene can
It is filed as biochemical. To be noted: read-out: VchCAβ; CO2 […], […] TRIS pH […] Na2SO4, […] °C, […] min preincubation.

For the next assay, the target named is T4, VchCAγ.
T4 construct: gene VchCAgamma
It is filed as biochemical, Vibrio cholerae. The conditions noted are these: CO2 […], […] TRIS pH […] Na2SO4, […] °C, […] min preincubation.

The target of a further assay is T5, hCA VII (Homo sapiens, UniProt P43166).
T5 construct: gene CA7; recombinant
It is filed as biochemical.

The target in another assay is T6, MgCA (Malassezia globosa, UniProt A8Q1N3).
T6 construct: gene MGL_1814
T6 sequence (A8Q1N3 1-241): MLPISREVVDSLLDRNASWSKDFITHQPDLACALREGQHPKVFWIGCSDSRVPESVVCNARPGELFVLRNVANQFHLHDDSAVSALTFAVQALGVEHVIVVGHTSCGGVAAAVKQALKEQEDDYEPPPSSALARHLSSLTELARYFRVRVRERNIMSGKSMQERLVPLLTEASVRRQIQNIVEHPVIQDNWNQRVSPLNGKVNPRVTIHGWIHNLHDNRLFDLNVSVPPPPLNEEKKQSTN
The assay can be described thus: biochemical.

T5 sequence (P43166 whole entry): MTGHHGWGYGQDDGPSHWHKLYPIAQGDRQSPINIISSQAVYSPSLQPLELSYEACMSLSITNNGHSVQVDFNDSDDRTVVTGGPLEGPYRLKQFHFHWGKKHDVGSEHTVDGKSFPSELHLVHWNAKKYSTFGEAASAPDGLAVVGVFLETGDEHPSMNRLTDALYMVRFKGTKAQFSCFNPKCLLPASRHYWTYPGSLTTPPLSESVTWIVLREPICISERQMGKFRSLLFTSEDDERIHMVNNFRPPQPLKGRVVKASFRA
T3 sequence (A0A086SLX8 1-222): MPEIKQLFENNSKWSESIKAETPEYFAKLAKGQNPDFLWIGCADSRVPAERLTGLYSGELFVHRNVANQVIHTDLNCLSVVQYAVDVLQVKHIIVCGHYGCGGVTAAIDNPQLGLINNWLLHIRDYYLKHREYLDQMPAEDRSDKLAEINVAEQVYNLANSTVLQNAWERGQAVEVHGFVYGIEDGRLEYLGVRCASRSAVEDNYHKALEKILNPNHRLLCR
T2 sequence (P00915 2-261): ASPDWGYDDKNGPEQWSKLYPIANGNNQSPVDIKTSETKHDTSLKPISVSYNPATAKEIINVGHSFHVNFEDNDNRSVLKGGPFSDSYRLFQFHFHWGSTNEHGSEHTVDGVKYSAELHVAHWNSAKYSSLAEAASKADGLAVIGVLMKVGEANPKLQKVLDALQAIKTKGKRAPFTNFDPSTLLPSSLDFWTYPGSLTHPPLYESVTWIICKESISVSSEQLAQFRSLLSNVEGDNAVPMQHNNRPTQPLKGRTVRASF

On to `COC(=O)[C@H](CC(C)C)NC(=O)c1ccc(S(N)(=O)=O)cc1` [3h, Methyl (4-Sulfamoylbenzoyl)-L-Leucinate], for which the Ki came to 3.7 nM at hCA II; 5.6 nM on hCA I; 719 nM on VchCAβ; 891 nM at VchCAγ; 0.4 nM at hCA VII; 763 nM on MgCA.

Take `COC(=O)C[C@@H](NC(=O)c1ccc(S(N)(=O)=O)cc1)C(=O)OC` [3i, Dimethyl (4-Sulfamoylbenzoyl)-D-Aspartate]: the Ki was 6.1 nM at hCA II; 75.7 nM at hCA I; 910 nM on VchCAβ; 744 nM at VchCAγ; 0.7 nM on hCA VII; 6950 nM at MgCA.

With `CCNC(=O)c1ccc(S(N)(=O)=O)cc1` [3a, N-Ethyl-4-Sulfamoylbenzamide], the Ki on hCA II came to 5.3 nM; on hCA I, 334 nM; at VchCAβ it was 7080 nM; on VchCAγ, 929 nM; at hCA VII it was 26.7 nM; on MgCA, 7670 nM.

Take `C#CCNC(=O)c1ccc(S(N)(=O)=O)cc1` [3c, N-(Prop-2-Yn-1-Yl)-4-Sulfamoylbenzamide]: the Ki on VchCAβ was found to be 741 nM; on VchCAγ it was 383 nM; at hCA VII, 0.6 nM; at MgCA, 5780 nM.

As to `COC(=O)C(NC(=O)c1ccc(S(N)(=O)=O)cc1)C(C)C` (racemic) [3f, Methyl (4-Sulfamoylbenzoyl)-DL-Valinate], the Ki on hCA II came to 4.5 nM; at hCA I it was 57.8 nM; at VchCAβ, 8170 nM; on VchCAγ, 4460 nM; on hCA VII it was 3.7 nM; on MgCA, 5500 nM.

On to `NS(=O)(=O)c1ccc(C(=O)N2CCOCC2)cc1` [3d, 4-(Morpholine-4-Carbonyl)Benzenesulfonamide], for which the Ki at hCA II came out at 6.2 nM; at hCA I, 8.7 nM; at VchCAβ, 8590 nM; at VchCAγ, 693 nM; at hCA VII, 0.8 nM; on MgCA it was 5880 nM.

On to `COC(=O)C(C)NC(=O)c1ccc(S(N)(=O)=O)cc1` (racemic) [3j, Methyl (4-Sulfamoylbenzoyl)-DL-Alaninate], for which the Ki on hCA II came to 6.1 nM; on hCA I it was 85.3 nM; at VchCAβ, 412 nM; at VchCAγ, 271 nM; on hCA VII, 3.7 nM; on MgCA, 87.3 nM.

`CCOC(=O)CCCNC(=O)c1ccc(S(N)(=O)=O)cc1` [3k, Ethyl 4-(4-Sulfamoylbenzamido)Butanoate]: the Ki at hCA II was 4 nM; on hCA I, 5.3 nM; at VchCAβ it was 953 nM; on VchCAγ, 756 nM; at hCA VII it was 0.4 nM; at MgCA, 6690 nM.

With `CCCNC(=O)c1ccc(S(N)(=O)=O)cc1` [3b, N-Propyl-4-Sulfamoylbenzamide], the Ki on hCA II came to 3.5 nM; at hCA I it was 8.2 nM; at VchCAβ, 7680 nM; on VchCAγ, 636 nM; on hCA VII, 0.4 nM; at MgCA, 3920 nM.

As for `COC(=O)[C@H](Cc1ccccc1)NC(=O)c1ccc(S(N)(=O)=O)cc1` [3l, Methyl (4-Sulfamoylbenzoyl)-L-Phenylalaninate], the Ki at hCA II was 3.3 nM; at hCA I, 5.6 nM; on VchCAβ, 663 nM; at VchCAγ, 409 nM; at hCA VII it was 0.5 nM; at MgCA, 517 nM.

On to `NS(=O)(=O)c1ccc(C(=O)N2CCCCC2)cc1` [3e, 4-(Piperidine-1-Carbonyl)Benzenesulfonamide], for which the values for the Ki at VchCAβ, at VchCAγ and on MgCA were 749 nM, 453 nM and 3980 nM, respectively.

`COC(=O)CC[C@@H](NC(=O)c1ccc(S(N)(=O)=O)cc1)C(=O)OC` [3g, Dimethyl (4-Sulfamoylbenzoyl)-D-Glutamate]: the Ki was 5.2 nM on hCA II; 8.2 nM on hCA I; 862 nM on VchCAβ; 503 nM on VchCAγ; 0.6 nM at hCA VII; 632 nM on MgCA.
